From paper PMC11351612, “Heteronuclear Complexes with Promising Anticancer Activity against Colon Cancer” (Biomedicines, 2024)

Legend:
[1] = system: Caco-2/PD7 cells; test: Annexin V/propidium iodide apoptosis assay, Caco-2/PD7; assay type: cell-based, human; conditions: Caco-2/PD7, IC50 concentration, 72 h; control 35.8%
Experimental: Study of cell death. After the appropriate incubation, cells were collected and stained with annexin V-FTIC, according to the manufacturer’s instructions. A negative control was prepared, containing unreacted cells to define the basal level of apoptotic and necrotic or dead cells. After incubation, the cells were transferred to flow-cytometry tubes and washed twice with temperate phosphate-buffered saline (PBS), suspended in 100 μL annexin V binding buffer (10 mM Hepes/NaOH, pH 7.4, 140 mM NaCl, 2.5 mM CaCl2), then 5 μL of annexin V-FITC, and 5 μL of PI was added to each 100 μL of cell suspension. After incubation for 15 min at room temperature in the dark, 400 μL of 1× annexin binding buffer was added and analysed by flow cytometry within one hour. The signal intensity was measured using a FACSARIA BD and analysed using FASCDIVA BD.
This inhibition of apoptosis produces a fast growth and proliferation of cancerous cells. The population of early and late apoptotic cells increased to 35% after treatment with complex 1 in comparison with the vehicle-treated cells (12%). […] Additionally, the effect observed after treating the cells with a dosage equal to the IC50 concentration is time-dependent. […]

[2] = system: Caco-2/TC7; test: Intracellular ROS generation (DCFH-DA); assay type: cell-based, human; conditions: IC50 concentration, monitored 3 h
Experimental: Measurement of intracellular ROS generation. The production of ROS was measured in Caco-2/TC7 seeded at a 4000 cells/well concentration in a 96-well plate, as described above. After 24 h, the culture growth medium was removed and cells were washed with PBS 1× and incubated with 20 µM DCFH-DA (Sigma-Aldrich) (100 µL/well) at 37 °C for 45 min in the dark. Afterwards, cells were washed with PBS 1× and then incubated with the tested compounds at their IC50 concentration or with 500 µM of H2O2 for the positive control. The fluorescent emission of DCF was monitored at 530 nm right after the addition of the complexes for 3 h using a microplate reader (λex = 485 nm), measuring every 15 min. The temperature was maintained at 37 °C during the experiment.
It is important to study the effect caused by ROS production upon the treatment of cells with metallic complexes, as it could indicate TrxR (thioredoxin reductase) inhibition and induction of apoptosis. Thus, the production of hydrogen peroxide in Caco-2 cells upon treatment with IC50 concentrations of complexes 1 and 2 has been studied. The method based on the H2O2-sensitive fluorescent probe DCFH-DA (2′-7′dichlorofluorescin diacetate) has been used. […]

[3] = molecular target: T1, bovine serum albumin (BSA) (Bos taurus, UniProt P02769); test: BSA fluorescence quenching (Stern-Volmer); assay type: binding; conditions: [BSA] = 50 μM, complex 0-30 μM, 298 K; for Stern-Volmer quenching constant KSV: λexc 295 nm
T1 construct: purchased Sigma Aldrich (St. Louis, MO, USA)
T1 sequence (P02769 25-607): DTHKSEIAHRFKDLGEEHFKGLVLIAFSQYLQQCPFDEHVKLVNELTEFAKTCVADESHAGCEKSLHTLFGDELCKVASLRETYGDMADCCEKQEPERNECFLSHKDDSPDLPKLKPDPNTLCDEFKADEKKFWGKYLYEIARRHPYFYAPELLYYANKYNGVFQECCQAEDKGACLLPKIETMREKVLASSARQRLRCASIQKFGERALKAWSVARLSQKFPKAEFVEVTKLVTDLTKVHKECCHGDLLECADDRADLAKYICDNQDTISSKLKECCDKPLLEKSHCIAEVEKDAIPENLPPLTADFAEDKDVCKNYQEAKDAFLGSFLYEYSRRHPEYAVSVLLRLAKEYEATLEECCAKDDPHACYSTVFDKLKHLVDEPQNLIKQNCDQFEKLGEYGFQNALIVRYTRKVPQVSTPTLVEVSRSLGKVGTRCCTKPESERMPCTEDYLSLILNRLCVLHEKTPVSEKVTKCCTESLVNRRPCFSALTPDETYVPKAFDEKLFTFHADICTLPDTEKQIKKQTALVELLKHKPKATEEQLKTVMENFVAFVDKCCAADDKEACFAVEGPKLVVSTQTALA
Experimental: Interaction with bovine serum albumin. BSA was purchased from Sigma Aldrich (St. Louis, MO, USA). A 2 mM stock solution of BSA was prepared by dissolving the commercial powder in PBS at pH 7.4. Afterwards, the real concentration was confirmed using UV-vis spectroscopy (ε280 nm = 43,824 M^−1cm^−1). The heteronuclear complexes were dissolved in DMSO to achieve 6 mM stock solutions, and six aliquots of 2.5 μL were added to a 50 μM solution of BSA in PBS placed in a quartz cuvette of 1 cm optical path. The final concentrations of the complexes in the cuvette were 0, 5, 10, 15, 20, 25, and 30 μM. The fluorescence spectra were recorded on a Jobin-Yvon-Horiba fluorolog FL-3-11 spectrometer. The samples were excited at 295 nm and the emission spectra were recorded in a range from 310 to 450 nm.
The samples were measured 4 min after every addition of the aliquots of the complexes. The fluorescence intensities of the PBS and the complexes were irrelevant under the described conditions. The data were analysed using the Stern–Volmer equation F0/F = 1 + KSV [gold complex] = 1 + Kqτ0[complex] to obtain the Stern–Volmer quenching constant (KSV) and the quenching rate constant (Kq). The binding constant (Kb) was quantified by using the Stern–Volmer equation: log {(F0 − F)/F} = log Kb + n log [complex].
We have carried out fluorescence and UV-Vis spectroscopic experiments to study the affinity of [Cu{Au(Spy)(PTA)}2]PF6 (1) and [Zn{Au(PTA)(Spy)}2](NO3)2 (2) for albumin. These experiments are based on the quenching of the intrinsic tryptophan fluorescence emission undergone by BSA in the presence of increasing concentrations of the trinuclear complexes, which act as quenchers. The intrinsic fluorescence of BSA is susceptible to alterations in its local environment, and the binding or simple electrostatic interaction of molecules can result in modifications to its emission spectrum. Fluorescence quenching experiments have been carried out, observing the emission of tryptophan at 341 nm upon excitation at 295 nm and increasing concentrations of compounds 2 and 3 with BSA. […] The addition of increasing amounts of the complexes to a BSA solution results in a significant reduction in fluorescence intensity without any shift in the emission maximum. The fluorescence data have been analysed using the Stern–Volmer equation so that the binding of the complexes to BSA and the consequent quenching of the emission can be quantified (Table 3). The corresponding plot F0/F versus [complex] (F and F0 are the corresponding intensities in the presence and the absence of the quencher agent) gives a linear plot in both cases (Figure 1B), characteristic of the presence of a single mechanism of quenching, either static or dynamic. […]

Substance	Apoptotic cells (early + late apoptosis) [1] [%]	H2O2 / ROS formation (DCF fluorescence vs vehicle-treated cells) [2]	number of binding sites n [3]	Stern-Volmer quenching constant KSV [3] [M⁻¹]
[Cu{Au(Spy)(PTA)}2]PF6 [compound 1]	62.4	more markedly	1.11	5730
[Zn{Au(PTA)(Spy)}2](NO3)2 [compound 2]			0.95	1760
